In patent publication US20060147481A1 (priority 2005, published 2006):

Key:
[1] = test system: platelet cyclo-oxygenase; details: horse, oral; cited from earlier work
[2] = test system: chronic laminitis; assay: Horse with chronic laminitis, Ketoprofen in the water; assay type: in vivo; details: 1 mg per pound in the water for 2 weeks
From the text: An equine client with a horse with chronic laminitis was using phenylbutazone to try to control the inflammation and pain associated with the disease. This product had to be given to the horse daily by the owner. […] The results were very good.

[3] = test system: swine influenza; assay type: in vivo, swine (finishing hogs)
[4] = test system: PRRS (Porcine Respiratory and Reproductive Syndrome) Virus; assay: PRRS virus outbreak in swine nursery, Ketoprofen orally; assay type: in vivo; details: orally for 7 days along with same other therapy as controls
From the text: A swine client with a 10,000 head nursery was experiencing severe mortality due to a PRRS (Porcine Respiratory and Reproductive Syndrome) Virus outbreak. They had used antibiotics with only partial success and were seeing mortalities as high as 30 percent in the group. […] We also saw less chronic pigs in the treatment group 3% versus 15% in the controls.

[5] = 1 mg/pound for 3 days orally through drinking water

SMILES	duration of inhibition of platelet cyclo-oxygenase [1] [h]	pain compared with previous treatment (phenylbutazone) [2]	morbidity at the time of the outbreak [3, 5] [%]	mortality [3, 5] [%]	average time to market, less than the control group ([3]; 1 mg/pound for 3 days orally through drinking water, 150 pound hogs marketed at 260 pounds) [days]	follow-up mass medication with antibiotics ([3]; two weeks after the outbreak)	chronic pigs [4] [%]	mortality [4] [%]
CN=C1CCN(c2cccc(C(F)(F)F)c2)N1 [BW540C]	24	–	–	–	–	–	–	–
CC(C(=O)O)c1cccc(C(=O)c2ccccc2)c1 (centres unmarked) [Ketoprofen]	–	less painful	10	2.1	9	did not require any mass medication with antibiotics	3	7
